Test results from the NIST ThermoML archive (doi:10.1016/j.jct.2013.03.015).

Experiment: molar heat capacity at constant pressure; xn = mol fraction of the nth substance listed
Conditions: 101 kPa, Crystal, relaxation calorimetry - PPMS by Quantum Design

[Cl-].[K+] [potassium chloride] + [Cl-].[Na+]
Conditions	molar heat capacity at constant pressure [J/K/mol]
5.041 K, x2 = 0.9	0.0176
5.086 K, x2 = 0.2	0.0361
5.095 K, x2 = 0.1	0.0387
5.409 K, x2 = 0.9	0.0219
5.454 K, x2 = 0.2	0.0452
5.458 K, x2 = 0.1	0.0485
5.793 K, x2 = 0.9	0.027
5.856 K, x2 = 0.2	0.0564
5.879 K, x2 = 0.1	0.0601
6.208 K, x2 = 0.9	0.0335
6.274 K, x2 = 0.2	0.07
6.294 K, x2 = 0.1	0.0738
6.664 K, x2 = 0.9	0.0417
6.728 K, x2 = 0.2	0.0878
6.752 K, x2 = 0.1	0.0936
7.14 K, x2 = 0.9	0.0518
7.176 K, x2 = 0.2	0.1084
7.188 K, x2 = 0.1	0.1141
7.653 K, x2 = 0.9	0.0641
7.691 K, x2 = 0.2	0.1356
7.702 K, x2 = 0.1	0.1425
8.202 K, x2 = 0.9	0.0801
8.238 K, x2 = 0.2	0.1702
8.252 K, x2 = 0.1	0.1787
8.791 K, x2 = 0.9	0.1001
8.829 K, x2 = 0.2	0.215
8.84 K, x2 = 0.1	0.2244
9.422 K, x2 = 0.9	0.1252
9.461 K, x2 = 0.2	0.2712
9.475 K, x2 = 0.1	0.2828
10.1 K, x2 = 0.9	0.157
10.14 K, x2 = 0.2	0.3435
10.15 K, x2 = 0.1	0.357
10.83 K, x2 = 0.9	0.198
10.87 K, x2 = 0.2	0.4354
10.89 K, x2 = 0.1	0.4512
11.61 K, x2 = 0.9	0.2499
11.65 K, x2 = 0.2	0.5511
11.67 K, x2 = 0.1	0.5685
12.45 K, x2 = 0.9	0.3169
12.48 K, x2 = 0.2	0.6946
12.5 K, x2 = 0.1	0.7153
13.34 K, x2 = 0.9	0.4021
13.38 K, x2 = 0.2	0.8732
13.4 K, x2 = 0.1	0.8969
14.23 K, x2 = 0.9	0.51
14.34 K, x2 = 0.2	1.092
14.36 K, x2 = 0.1	1.12
15.33 K, x2 = 0.9	0.6479
15.37 K, x2 = 0.2	1.362
15.39 K, x2 = 0.1	1.395
16.43 K, x2 = 0.9	0.8219
16.47 K, x2 = 0.2	1.691
16.49 K, x2 = 0.1	1.726
17.61 K, x2 = 0.9	1.04
17.65 K, x2 = 0.2	2.087
17.67 K, x2 = 0.1	2.125
18.87 K, x2 = 0.9	1.31
18.91 K, x2 = 0.2	2.55
18.94 K, x2 = 0.1	2.599
20.24 K, x2 = 0.9	1.649
20.26 K, x2 = 0.2	3.105
20.29 K, x2 = 0.1	3.156
21.7 K, x2 = 0.9	2.061
21.71 K, x2 = 0.2	3.756
21.74 K, x2 = 0.1	3.81
23.25 K, x2 = 0.9	2.563
23.26 K, x2 = 0.2	4.514
23.29 K, x2 = 0.1	4.578
24.92 K, x2 = 0.9	3.165
24.93 K, x2 = 0.2	5.396
24.96 K, x2 = 0.1	5.463
26.71 K, x2 = 0.9	3.859
26.72 K, x2 = 0.2	6.429
26.74 K, x2 = 0.1	6.508
28.63 K, x2 = 0.2	7.596
28.64 K, x2 = 0.9	4.716
28.66 K, x2 = 0.1	7.674
30.69 K, x2 = 0.2	8.768
30.7 K, x2 = 0.9	5.671
30.71 K, x2 = 0.1	8.824
32.89 K, x2 = 0.2	10.16
32.9 K, x2 = 0.9	6.785
32.91 K, x2 = 0.1	10.29
35.25 K, x2 = 0.2	11.67
35.27 K, x2 = 0.9	8.039
35.28 K, x2 = 0.1	11.82
37.78 K, x2 = 0.2	13.3
37.81 K, x2 = 0.1	13.48
37.81 K, x2 = 0.9	9.437
40.5 K, x2 = 0.2	15.06
40.52 K, x2 = 0.1	15.25
40.53 K, x2 = 0.9	10.98
43.41 K, x2 = 0.2	16.89
43.43 K, x2 = 0.1	17.11
43.45 K, x2 = 0.9	12.63
46.53 K, x2 = 0.2	18.81
46.57 K, x2 = 0.1	19.04
46.58 K, x2 = 0.9	14.4
49.87 K, x2 = 0.2	20.73
49.91 K, x2 = 0.1	21.01
49.93 K, x2 = 0.9	16.28
53.47 K, x2 = 0.2	22.73
53.5 K, x2 = 0.1	23
53.53 K, x2 = 0.9	18.23
57.32 K, x2 = 0.2	24.73
57.34 K, x2 = 0.1	25.02
57.38 K, x2 = 0.9	20.25
61.44 K, x2 = 0.2	26.7
61.47 K, x2 = 0.1	26.98
61.51 K, x2 = 0.9	22.26
65.86 K, x2 = 0.2	28.67
65.89 K, x2 = 0.1	28.95
65.94 K, x2 = 0.9	24.31
70.6 K, x2 = 0.2	30.6
70.63 K, x2 = 0.1	30.88
70.69 K, x2 = 0.9	26.32
75.67 K, x2 = 0.2	32.39
75.7 K, x2 = 0.1	32.61
75.77 K, x2 = 0.9	28.27
81.11 K, x2 = 0.2	34.17
81.13 K, x2 = 0.1	34.4
81.21 K, x2 = 0.9	30.13
86.93 K, x2 = 0.2	35.85
86.95 K, x2 = 0.1	36.07
87.05 K, x2 = 0.9	32.29
93.14 K, x2 = 0.1	37.49
93.15 K, x2 = 0.2	37.32
93.3 K, x2 = 0.9	34.01
99.83 K, x2 = 0.1	39.05
99.85 K, x2 = 0.2	38.84
100.02 K, x2 = 0.9	35.79
107.02 K, x2 = 0.1	40.33
107.03 K, x2 = 0.2	40.15
107.21 K, x2 = 0.9	37.38
114.72 K, x2 = 0.1	41.63
114.72 K, x2 = 0.2	41.45
114.92 K, x2 = 0.9	38.92
122.97 K, x2 = 0.1	42.71
122.97 K, x2 = 0.2	42.57
123.18 K, x2 = 0.9	40.27
131.81 K, x2 = 0.1	43.7
131.82 K, x2 = 0.2	43.53
132.04 K, x2 = 0.9	41.45
141.3 K, x2 = 0.1	44.69
141.3 K, x2 = 0.2	44.51
141.54 K, x2 = 0.9	42.61
151.45 K, x2 = 0.2	45.39
151.46 K, x2 = 0.1	45.56
151.71 K, x2 = 0.9	43.67
162.35 K, x2 = 0.2	46.18
162.37 K, x2 = 0.1	46.3
162.61 K, x2 = 0.9	44.81
174.02 K, x2 = 0.2	46.93
174.06 K, x2 = 0.1	47.07
174.32 K, x2 = 0.9	45.52
186.55 K, x2 = 0.2	47.5
186.58 K, x2 = 0.1	47.69
186.88 K, x2 = 0.9	46.21
199.96 K, x2 = 0.2	48.19
199.99 K, x2 = 0.1	48.31
200.33 K, x2 = 0.9	47.11
214.35 K, x2 = 0.2	48.72
214.36 K, x2 = 0.1	48.85
214.74 K, x2 = 0.9	47.78
229.74 K, x2 = 0.2	49.19
229.76 K, x2 = 0.1	49.26
230.17 K, x2 = 0.9	48.37
246.25 K, x2 = 0.2	49.8
246.27 K, x2 = 0.1	49.83
246.73 K, x2 = 0.9	49.07
263.91 K, x2 = 0.2	50.18
263.93 K, x2 = 0.1	50.3
264.44 K, x2 = 0.9	49.55
282.86 K, x2 = 0.2	50.68
282.87 K, x2 = 0.1	50.88
283.42 K, x2 = 0.9	50.22
303.12 K, x2 = 0.2	51.21
303.18 K, x2 = 0.1	51.27
303.77 K, x2 = 0.9	50.61
